Experimental data from patent US7807439B2, “Staphylococcus aureus-specific detection media and identifying and/or counting method using same” (Biomerieux S.A., priority 2001, dated 2010).

Experiments:
Experiment in all cases: Experiment 1: chromogenic α-glucosidase substrates in gelled medium, colony coloration
Conditions in all cases: substrate 100 mg/l
S. saprophyticus 064 = format: cell-based, Staphylococcus saprophyticus; set-up: key to I (intensity of coloration): 0 corresponds to a lack of activity; 0.1 corresponds to the presence of a trace of coloration; 0.5 corresponds to the presence of a very pale coloration; 1 corresponds to the presence of a clear coloration of weak intensity; 1.5 corresponds to the presence of a coloration which is intermediate between colorations 1 and 2; 2 corresponds to the presence of a true coloration of medium intensity; 2.5 corresponds to the presence of a coloration which is intermediate between colorations 2 and 3; 3 corresponds to the presence of an intense coloration; 3.5 corresponds to the presence of a coloration which is intermediate between colorations 3 and 4; 4 corresponds to the presence of a very intense coloration; key to C (coloration of the colonies): —: the symbol “−” is synonymous with a lack of colour or intensity
Protocol: (§1) The α-glucosidase substrates are solubilized in dimethyl sulfoxide at a concentration of 200 g/l. A sufficient volume to obtain a final concentration of substrate of 100 mg/l is added to the four molten media. Microorganisms derived from the bioMérieux internal collection were seeded onto each one of the media, on their own as three dials, using a suspension at 0.5 MacFarland. However, results obtained with microorganisms derived from collections available to the public, ATCC or NCTC for example, would give identical results. The dishes were incubated at 37° C. for 48 hours. The colonies were examined visually after an incubation time of 24 and 48 hours. The coloration and also the intensity of this coloration were noted.
(§2) In table 2 below, as in the tables which will follow, C represents the coloration of the colonies after incubation, I represents the intensity of this coloration, the symbol “−” is synonymous with a lack of colour or intensity, and, finally, TI defines the incubation time. It should be noted that the intensity of the coloration is an arbitrary scale, but which is common to all the biological samples and all the media tested. This scale is valid for this experiment and also for all the experiments which will follow. It can be defined in the following way: • 0 corresponds to a lack of activity, • 0.1 corresponds to the presence of a trace of coloration, • 0.5 corresponds to the presence of a very pale coloration, • 1 corresponds to the presence of a clear coloration of weak intensity, • 1.5 corresponds to the presence of a coloration which is intermediate between colorations 1 and 2, • 2 corresponds to the presence of a true coloration of medium intensity, • 2.5 corresponds to the presence of a coloration which is intermediate between colorations 2 and 3, • 3 corresponds to the presence of an intense coloration • 3.5 corresponds to the presence of a coloration which is intermediate between colorations 3 and 4, • 4 corresponds to the presence of a very intense coloration.

S. epidermidis 009 = format: cell-based, Staphylococcus epidermidis; set-up: key to I (intensity of coloration): 0 corresponds to a lack of activity; 0.1 corresponds to the presence of a trace of coloration; 0.5 corresponds to the presence of a very pale coloration; 1 corresponds to the presence of a clear coloration of weak intensity; 1.5 corresponds to the presence of a coloration which is intermediate between colorations 1 and 2; 2 corresponds to the presence of a true coloration of medium intensity; 2.5 corresponds to the presence of a coloration which is intermediate between colorations 2 and 3; 3 corresponds to the presence of an intense coloration; 3.5 corresponds to the presence of a coloration which is intermediate between colorations 3 and 4; 4 corresponds to the presence of a very intense coloration; key to C (coloration of the colonies): —: the symbol “−” is synonymous with a lack of colour or intensity
Protocol: as §1, §2

S. xylosus 008 = format: cell-based, Staphylococcus xylosus; set-up: key to I (intensity of coloration): 0 corresponds to a lack of activity; 0.1 corresponds to the presence of a trace of coloration; 0.5 corresponds to the presence of a very pale coloration; 1 corresponds to the presence of a clear coloration of weak intensity; 1.5 corresponds to the presence of a coloration which is intermediate between colorations 1 and 2; 2 corresponds to the presence of a true coloration of medium intensity; 2.5 corresponds to the presence of a coloration which is intermediate between colorations 2 and 3; 3 corresponds to the presence of an intense coloration; 3.5 corresponds to the presence of a coloration which is intermediate between colorations 3 and 4; 4 corresponds to the presence of a very intense coloration; key to C (coloration of the colonies): —: the symbol “−” is synonymous with a lack of colour or intensity
Protocol: as §1, §2

S. intermedius 075 = format: cell-based, Staphylococcus intermedius; set-up: key to I (intensity of coloration): 0 corresponds to a lack of activity; 0.1 corresponds to the presence of a trace of coloration; 0.5 corresponds to the presence of a very pale coloration; 1 corresponds to the presence of a clear coloration of weak intensity; 1.5 corresponds to the presence of a coloration which is intermediate between colorations 1 and 2; 2 corresponds to the presence of a true coloration of medium intensity; 2.5 corresponds to the presence of a coloration which is intermediate between colorations 2 and 3; 3 corresponds to the presence of an intense coloration; 3.5 corresponds to the presence of a coloration which is intermediate between colorations 3 and 4; 4 corresponds to the presence of a very intense coloration; key to C (coloration of the colonies): —: the symbol “−” is synonymous with a lack of colour or intensity
Protocol: as §1, §2

S. aureus 276 = format: cell-based, Staphylococcus aureus; set-up: key to I (intensity of coloration): 0 corresponds to a lack of activity; 0.1 corresponds to the presence of a trace of coloration; 0.5 corresponds to the presence of a very pale coloration; 1 corresponds to the presence of a clear coloration of weak intensity; 1.5 corresponds to the presence of a coloration which is intermediate between colorations 1 and 2; 2 corresponds to the presence of a true coloration of medium intensity; 2.5 corresponds to the presence of a coloration which is intermediate between colorations 2 and 3; 3 corresponds to the presence of an intense coloration; 3.5 corresponds to the presence of a coloration which is intermediate between colorations 3 and 4; 4 corresponds to the presence of a very intense coloration
Protocol: as §1, §2

S. aureus 070 = format: cell-based, Staphylococcus aureus; set-up: key to I (intensity of coloration): 0 corresponds to a lack of activity; 0.1 corresponds to the presence of a trace of coloration; 0.5 corresponds to the presence of a very pale coloration; 1 corresponds to the presence of a clear coloration of weak intensity; 1.5 corresponds to the presence of a coloration which is intermediate between colorations 1 and 2; 2 corresponds to the presence of a true coloration of medium intensity; 2.5 corresponds to the presence of a coloration which is intermediate between colorations 2 and 3; 3 corresponds to the presence of an intense coloration; 3.5 corresponds to the presence of a coloration which is intermediate between colorations 3 and 4; 4 corresponds to the presence of a very intense coloration
Protocol: as §1, §2

S. aureus 004 = format: cell-based, Staphylococcus aureus; set-up: key to I (intensity of coloration): 0 corresponds to a lack of activity; 0.1 corresponds to the presence of a trace of coloration; 0.5 corresponds to the presence of a very pale coloration; 1 corresponds to the presence of a clear coloration of weak intensity; 1.5 corresponds to the presence of a coloration which is intermediate between colorations 1 and 2; 2 corresponds to the presence of a true coloration of medium intensity; 2.5 corresponds to the presence of a coloration which is intermediate between colorations 2 and 3; 3 corresponds to the presence of an intense coloration; 3.5 corresponds to the presence of a coloration which is intermediate between colorations 3 and 4; 4 corresponds to the presence of a very intense coloration
Protocol: as §1, §2

Row | Compound | C (coloration of the colonies) (S. saprophyticus 064; TI 24 h) | I (intensity of coloration) (S. saprophyticus 064; TI 24 h) | C (coloration of the colonies) (S. saprophyticus 064; TI 48 h) | I (intensity of coloration) (S. saprophyticus 064; TI 48 h) | C (coloration of the colonies) (S. epidermidis 009; TI 24 h) | I (intensity of coloration) (S. epidermidis 009; TI 24 h) | C (coloration of the colonies) (S. epidermidis 009; TI 48 h) | I (intensity of coloration) (S. epidermidis 009; TI 48 h) | C (coloration of the colonies) (S. xylosus 008; TI 24 h) | I (intensity of coloration) (S. xylosus 008; TI 24 h) | C (coloration of the colonies) (S. xylosus 008; TI 48 h) | I (intensity of coloration) (S. xylosus 008; TI 48 h) | C (coloration of the colonies) (S. intermedius 075; TI 24 h) | I (intensity of coloration) (S. intermedius 075; TI 24 h) | C (coloration of the colonies) (S. intermedius 075; TI 48 h) | I (intensity of coloration) (S. intermedius 075; TI 48 h) | C (coloration of the colonies) (S. aureus 276; TI 24 h) | I (intensity of coloration) (S. aureus 276; TI 24 h) | C (coloration of the colonies) (S. aureus 276; TI 48 h) | I (intensity of coloration) (S. aureus 276; TI 48 h) | further results
1 | OC[C@H]1O[C@H](Oc2c[nH]c3cc(Cl)ccc23)[C@H](O)[C@@H](O)[C@@H]1O [Pink-a-GLU, 6-Chloro-3-indoxyl-α-D-glucoside] | — | 0 | — | 0 | — | 0 | — | 0 | — | 0 | pink | 0.5 | — | 0 | pink | 0.5 | pink | 1.5 | pink | 1.5 | C (coloration of the colonies) (S. aureus 070; TI 24 h): pink; I (intensity of coloration) (S. aureus 070; TI 24 h): 2; C (coloration of the colonies) (S. aureus 070; TI 48 h): pink; I (intensity of coloration) (S. aureus 070; TI 48 h): 2; C (coloration of the colonies) (S. aureus 004; TI 24 h): pink; I (intensity of coloration) (S. aureus 004; TI 24 h): 1; C (coloration of the colonies) (S. aureus 004; TI 48 h): pink; I (intensity of coloration) (S. aureus 004; TI 48 h): 1
2 | 5-bromo-4-chloro-3-indoxyl-α-D-glucoside [X-a-GLU] | — | 0 | turquoise | 0.5 | — | 0 | turquoise | 1 | turquoise | 0.5 | turquoise | 1.5 | turquoise | 0.5 | turquoise | 2 | turquoise | 2 | turquoise | 2 | C (coloration of the colonies) (S. aureus 070; TI 24 h): turquoise; I (intensity of coloration) (S. aureus 070; TI 24 h): 1.5; C (coloration of the colonies) (S. aureus 070; TI 48 h): turquoise; I (intensity of coloration) (S. aureus 070; TI 48 h): 1.5; C (coloration of the colonies) (S. aureus 004; TI 24 h): turquoise; I (intensity of coloration) (S. aureus 004; TI 24 h): 1; C (coloration of the colonies) (S. aureus 004; TI 48 h): turquoise; I (intensity of coloration) (S. aureus 004; TI 48 h): 2
3 | OC[C@H]1O[C@H](Oc2c[nH]c3cc(Br)ccc23)[C@H](O)[C@@H](O)[C@@H]1O [Red “A” a-GLU, 6-Bromo-3-indoxyl-α-D-glucoside] | — | 0 | — | 0 | — | 0 | — | 0 | — | 0 | pink | 2.5 | — | 0 | pink | 1.5 | pink | 2 | pink | 2 | C (coloration of the colonies) (S. aureus 070; TI 24 h): pink; I (intensity of coloration) (S. aureus 070; TI 24 h): 2; C (coloration of the colonies) (S. aureus 070; TI 48 h): pink; I (intensity of coloration) (S. aureus 070; TI 48 h): 2.5; C (coloration of the colonies) (S. aureus 004; TI 24 h): pink; I (intensity of coloration) (S. aureus 004; TI 24 h): 0.5; C (coloration of the colonies) (S. aureus 004; TI 48 h): pink; I (intensity of coloration) (S. aureus 004; TI 48 h): 2.5
